Source: ChEMBL document CHEMBL1144607, “Novel hydroxamic acid-related phosphinates: inhibition of neutral aminopeptidase N (APN)” (Bioorg Med Chem Lett, 2007)
Activity calls are given as the source filed them. No cut-off for these calls is given here.

Legend:
Aminopeptidase N [1] = target: T1, Aminopeptidase N (Homo sapiens, UniProt P15144); assay: Inhibition of APN
Aminopeptidase N [2] = target: T1, Aminopeptidase N; assay: Inhibition of APN at <300 uM

T1 sequence (P15144 whole entry): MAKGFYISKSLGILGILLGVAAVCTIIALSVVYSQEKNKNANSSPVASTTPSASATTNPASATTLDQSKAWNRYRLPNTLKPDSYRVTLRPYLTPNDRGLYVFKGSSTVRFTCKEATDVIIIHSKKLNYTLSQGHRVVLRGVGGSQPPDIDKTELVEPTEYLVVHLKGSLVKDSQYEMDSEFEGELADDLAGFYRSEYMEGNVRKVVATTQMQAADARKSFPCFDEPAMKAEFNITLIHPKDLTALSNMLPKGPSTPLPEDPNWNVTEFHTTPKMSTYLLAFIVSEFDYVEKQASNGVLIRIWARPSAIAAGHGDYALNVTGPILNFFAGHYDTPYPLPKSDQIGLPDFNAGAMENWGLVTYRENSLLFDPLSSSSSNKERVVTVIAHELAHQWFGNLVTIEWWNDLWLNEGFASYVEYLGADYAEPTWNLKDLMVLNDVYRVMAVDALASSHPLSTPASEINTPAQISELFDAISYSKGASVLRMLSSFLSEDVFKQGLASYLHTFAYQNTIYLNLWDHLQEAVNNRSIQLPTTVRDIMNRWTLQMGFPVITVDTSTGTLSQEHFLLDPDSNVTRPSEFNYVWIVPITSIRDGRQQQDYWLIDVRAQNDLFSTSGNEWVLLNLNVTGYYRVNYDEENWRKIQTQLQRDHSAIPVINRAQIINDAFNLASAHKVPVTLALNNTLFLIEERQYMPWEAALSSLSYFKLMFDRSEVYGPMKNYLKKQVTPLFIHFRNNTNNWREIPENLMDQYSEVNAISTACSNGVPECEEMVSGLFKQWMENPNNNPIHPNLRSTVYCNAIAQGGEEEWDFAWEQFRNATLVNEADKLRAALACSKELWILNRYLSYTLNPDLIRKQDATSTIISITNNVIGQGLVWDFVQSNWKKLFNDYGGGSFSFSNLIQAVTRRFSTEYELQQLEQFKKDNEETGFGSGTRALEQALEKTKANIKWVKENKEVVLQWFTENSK

| Activity (Aminopeptidase N [2]) | Structure (SMILES) | IC50 (Aminopeptidase N [1]) [µM] |
| --- | --- | --- |
| – | CC(C)C(N)P(=O)(O)C(=O)Nc1ccccc1 (centres undefined) | 160 |
| inactive | CCNC(=O)P(=O)(O)C(N)C(C)C (centres undefined) | – |
| inactive | CCCCCNC(=O)P(=O)(O)C(N)Cc1ccccc1 (centres undefined) | – |
| – | CC(C)CC(N)P(=O)(O)C(C)N (centres undefined) | 155 |
